Key:
[1] = test system: human renal tubule cell line HK-2; assay: Reactive oxygen species (ROS) generation in HK-2 cells; type: cell-based
Experimental: After 48 hours of incubation, ROS generated in the HK-2 cells was analyzed.
Specifically, intracellular reactive oxygen species (ROS) levels were measured by fluorescence spectroscopy after treatment with bimatoprost and/or colistin. Saline containing 1% DMSO was used as a vehicle.

[2] = test system: C57BL/6N mice; assay: Colistin-induced nephrotoxicity model in mice; type: in vivo; conditions: 14 days
Experimental: Specifically, a colistin-induced nephrotoxicity model was established using 6-week-old C57BL/6N mice. The control group (vehicle-treated group) was prepared by intraperitoneally injecting mice with vehicle (saline containing 1% DMSO) every 12 hours for 14 days. The colistin-treated group was prepared by intraperitoneally injecting colistin at 10 mg/kg every 12 hours for 14 days. The bimatoprost-treated group was prepared by intraperitoneally injecting bimatoprost at 1 mg/kg every 12 hours for 14 days. The bimatoprost and colistin co-treatment group was prepared by intraperitoneally injecting bimatoprost at 1 mg/kg and colistin at 10 mg/kg every 12 hours for 14 days. After 14 days of administration, tissue, blood, and kidneys were collected from the mice, and key indicators of kidney disease, including kidney color, body weight, blood urea nitrogen levels, blood creatinine levels, and expression of kidney injury marker-1 (KIM-1), were analyzed.

[3] = test system: human renal tubule cell line HK-2; assay: TUNEL assay for apoptosis in HK-2 cells; type: cell-based
Experimental: To evaluate the effect of PGF2α on kidney diseases, the influence of PGF2α on apoptosis in kidney cells induced by antibiotic treatment was assessed. Colistin, a type of antibiotic, is known to accumulate in proximal tubular cells and induce apoptosis by increasing the expression of the Fas death receptor or by increasing the generation of reactive oxygen species. […] After 48 hours of incubation, a TUNEL assay was conducted to assess apoptosis. Cells that tested positive in the TUNEL assay were considered apoptotic cells.
Specifically, a vehicle-treated group, a group treated with vehicle and colistin, and a group treated with bimatoprost and colistin were prepared. Apoptosis in HK-2 cells was analyzed using a TUNEL assay.

[4] = test system: Escherichia coli; assay: Paper disk antibacterial activity on LB medium; type: cell-based; conditions: 24 hours; for growth of E. coli: substance alone on paper disk
Experimental: Specifically, Escherichia coli, a Gram-negative bacterium, was spread onto an LB medium, and paper disks were treated with bimatoprost and/or colistin. Saline containing 1% DMSO was used as a vehicle. After placing the paper disks onto the LB medium, incubation was carried out for 24 hours.

[5] = test system: human renal tubule cell line HK-2; assay: Cytotoxicity / cell viability assay in HK-2 cells
Experimental: Specifically, the human renal tubule cell line HK-2 was treated with PGF2α at a concentration of 50 μM and with colistin at 400 μg/mL. In the case of pretreatment with PGF2α, colistin was treated 24 hours after treatment with PGF2α, and the cells were cultured for 48 hours, followed by an assay to evaluate cytotoxicity. In the case of co-treatment, PGF2α and colistin were treated simultaneously, and the cells were cultured for 48 hours, followed by the assay.
Specifically, bimatoprost was treated to human renal tubule cell line HK-2 at concentrations of 0.1 μM, 0.5 μM, 1.0 μM, 5.0 μM, 10 μM, 20 μM, and 50 μM, and the vehicle-treated group was used as a control. In the case of pretreatment with bimatoprost, colistin was treated 24 hours after bimatoprost treatment, followed by incubation for 48 hours and a cytotoxicity assay. In the case of co-treatment, bimatoprost and colistin were treated simultaneously, followed by 48 hours of incubation and the cytotoxicity assay.

[6] = bimatoprost 1 mg/kg + colistin 10 mg/kg i.p. every 12 hours
[7] = PGF2α 50 μM co-treated with colistin 400 μg/mL, 48 hours
[8] = colistin 10 mg/kg i.p. every 12 hours

Compound: CCNC(=O)CCC/C=C\C[C@@H]1[C@@H](/C=C/[C@@H](O)CCc2ccccc2)[C@H](O)C[C@@H]1O [bimatoprost]
- colistin-induced increase in ROS ([1]; bimatoprost and colistin, level similar to vehicle-treated group): reduced to approximately half
- KIM-1 area compared to the colistin-treated group [2, 6]: reduced by about eight times
- KIM-1 expression in kidney [2, 6]: barely observed
- blood creatinine levels [2, 6]: lower than those in the colistin-treated group
- blood urea nitrogen levels [2, 6]: lower than those in the colistin-treated group
- body weight [2, 6]: weight loss was not observed
- kidney color [2, 6]: recovered to a level similar to that of the vehicle-treated group
- number of apoptotic cells compared to the group treated with vehicle and colistin ([3]; bimatoprost and colistin co-treated): reduced by approximately threefold
- inhibitory effect on E. coli growth ([4]; colistin and bimatoprost together on paper disk): at the same level as that observed in the group treated with colistin alone
- growth of E. coli [4]: not inhibited
- extent of cell death induced by colistin compared to cells not treated with bimatoprost ([5]; bimatoprost pretreated at 10 μM): reduced by approximately fourfold
- effect on colistin-induced cell death ([5]; bimatoprost pretreatment 24 hours before colistin, then 48 hours): reduced colistin-induced cell death

Compound: CCCCC[C@H](O)/C=C/[C@@H]1[C@@H](C/C=C\CCCC(=O)O)[C@@H](O)C[C@H]1O [PGF2α, prostaglandin F2α]
- reduction of colistin-induced increase in ROS [1, 7]: approximately 1.5 fold
- ROS levels ([1]; PGF2α alone, 50 μM, 48 hours): decreased
- colistin-induced increase in apoptosis [3, 7]: reduced by about half

Compound: colistin
- ROS levels compared to cells not treated with colistin ([1]; colistin 400 μg/mL, 48 hours (Example 1-3)): more than fivefold
- increase in ROS levels compared to the vehicle-treated group ([1]; colistin-treated group (Example 2-3), fluorescence spectroscopy): more than 2.5 fold
- KIM-1 expression in kidney [2, 8]: clearly observed
- blood creatinine levels relative to vehicle-treated group [2, 8]: approximately 1.5 times
- blood urea nitrogen levels relative to vehicle-treated group [2, 8]: approximately 1.5 times
- body weight [2, 8]: reduction in body weight after day 6
- kidney color [2, 8]: became paler
- increase in apoptosis compared to cells not treated with colistin ([3]; colistin 400 μg/mL, 48 hours): approximately 30%
- apoptotic cells (TUNEL) ([3]; vehicle and colistin vs vehicle-treated group (Example 2-2)): significant increase in apoptotic cells
- growth of E. coli [4]: markedly suppressed
- cells survived compared to those not treated with colistin ([5]; colistin 400 μg/mL, 48 hours): about 50%
